Laboratory results reported in the CheMixHub ionic liquid set.

Test: xn = mol fraction of the nth substance listed

CSCC[C@H](N)C(=O)O + CCCCCCCCCCCC[N+](C)(C)C.[Br-] + O
viscosity [mPa·s], 101 kPa
Settings	293.15 K	298.15 K	303.15 K	308.15 K	313.15 K
x1 = 0.0001801, x2 = 0.0001083	1.019	0.904	0.811	0.746	0.677
x1 = 0.0001801, x2 = 0.0001624	1.024	0.907	0.814	0.749	0.68
x1 = 0.0001801, x2 = 0.0002165	1.03	0.909	0.816	0.75	0.681
x1 = 0.0001801, x2 = 0.0002706	1.034	0.912	0.818	0.752	0.683
x1 = 0.0001801, x2 = 0.0003247	1.04	0.915	0.82	0.754	0.685
x1 = 0.0001801, x2 = 0.0003788	1.044	0.919	0.823	0.756	0.687
x1 = 0.0001801, x2 = 0.0004329	1.046	0.922	0.829	0.758	0.689
x1 = 0.0001801, x2 = 0.0004869	1.049	0.927	0.834	0.76	0.691
x1 = 0.0001801, x2 = 0.000541	1.052	0.931	0.84	0.762	0.694
x1 = 0.0001802, x2 = 5.413e-05	1.013	0.9	0.81	0.745	0.672
x1 = 0.0008997, x2 = 0.0005439	1.07	0.912	0.836	0.761	0.683
x1 = 0.0008998, x2 = 0.0003808	1.061	0.906	0.819	0.751	0.672
x1 = 0.0008998, x2 = 0.0004351	1.063	0.908	0.822	0.753	0.675
x1 = 0.0008998, x2 = 0.0004895	1.066	0.91	0.831	0.756	0.679
x1 = 0.0008999, x2 = 0.000272	1.057	0.902	0.812	0.746	0.668
x1 = 0.0008999, x2 = 0.0003264	1.059	0.904	0.815	0.748	0.67
x1 = 0.0009, x2 = 0.0001632	1.053	0.899	0.809	0.74	0.663
x1 = 0.0009, x2 = 0.0002176	1.054	0.901	0.81	0.743	0.666
x1 = 0.0009001, x2 = 5.441e-05	1.048	0.894	0.805	0.732	0.658
x1 = 0.0009001, x2 = 0.0001088	1.051	0.896	0.807	0.735	0.66
x1 = 0.001798, x2 = 0.0001643	1.062	0.911	0.822	0.745	0.675
x1 = 0.001798, x2 = 0.000219	1.064	0.913	0.824	0.747	0.676
x1 = 0.001798, x2 = 0.0002738	1.066	0.916	0.827	0.749	0.678
x1 = 0.001798, x2 = 0.0003285	1.069	0.919	0.83	0.751	0.681
x1 = 0.001798, x2 = 0.0003832	1.073	0.921	0.832	0.756	0.683
x1 = 0.001798, x2 = 0.0004379	1.076	0.927	0.836	0.76	0.686
x1 = 0.001798, x2 = 0.0004927	1.079	0.932	0.84	0.764	0.692
x1 = 0.001798, x2 = 0.0005474	1.083	0.937	0.844	0.77	0.698
x1 = 0.001799, x2 = 5.476e-05	1.059	0.906	0.818	0.741	0.671
x1 = 0.001799, x2 = 0.0001095	1.06	0.909	0.82	0.743	0.673

CCCCCC[n+]1ccn(C)c1.O=[N+]([O-])c1cn[n-]c1 + CCCCCCCC[P+](CC)(CC)CC.O=S(=O)([N-]S(=O)(=O)C(F)(F)F)C(F)(F)F
Settings	viscosity [mPa·s]
288.15 K, 100 kPa, x2 = 0.1	770

CN1CCN(C)C1=O + CCCCCCCCn1cc[n+](C)c1.[Cl-]
100 kPa
Settings	viscosity [mPa·s]
288.15 K, x2 = 0.3018	87.7
288.15 K, x2 = 0.4964	614
293.15 K, x2 = 0.3991	158.4
303.15 K, x2 = 0.2056	16.57
303.15 K, x2 = 0.4964	230
308.15 K, x2 = 0.7994	1104
313.15 K, x2 = 0.4964	129.8
313.15 K, x2 = 0.7994	774
318.15 K, x2 = 0.4964	100.2
323.15 K, x2 = 0.4964	79.4
328.15 K, x2 = 0.105	3.05
328.15 K, x2 = 0.3991	31.3
333.15 K, x2 = 0.7007	148

CCCCCO + CCCCCC[n+]1ccn(C)c1.[Cl-]
Settings	viscosity [mPa·s]
303.15 K, 101 kPa, x1 = 1	3.03

CN1CCN(C)C1=O + CCCCCC[n+]1ccn(C)c1.[Cl-]
100 kPa
Settings	viscosity [mPa·s]
288.15 K, x2 = 0	2.368
288.15 K, x2 = 0.1007	6.33
303.15 K, x2 = 0.1999	9.99
308.15 K, x2 = 0	1.616
308.15 K, x2 = 0.1999	8.56
308.15 K, x2 = 0.3856	44.3
318.15 K, x2 = 0.6969	182
323.15 K, x2 = 0.1007	2.8
323.15 K, x2 = 0.2985	12.78
323.15 K, x2 = 0.4985	45.7
328.15 K, x2 = 0	1.195
333.15 K, x2 = 0.2985	9.67

CCCCCCCC[N+]1(C)CCCC1.O=S(=O)([N-]S(=O)(=O)C(F)(F)F)C(F)(F)F + CCCCOC(C)=O
298.15 K, 100 kPa
Settings	electrical conductivity [S/m]	viscosity [mPa·s]
x2 = 0.2414	0.145	–
x2 = 0.2589	–	51.3
x2 = 0.6824	0.353	–
x2 = 0.7923	0.355	–
x2 = 0.8427	0.326	–

O=S(=O)([N-]S(=O)(=O)C(F)(F)F)C(F)(F)F.[Li+] + CCCC[N+]1(C)CCCC1.O=S(=O)([N-]S(=O)(=O)C(F)(F)F)C(F)(F)F
100 kPa, x1 = 0.24
Settings	electrical conductivity [S/m]
277.9 K	0.007
283.4 K	0.016
298 K	0.062
346.4 K	0.429

O=S(=O)([N-]S(=O)(=O)C(F)(F)F)C(F)(F)F.[Li+] + CCCC[N+]1(C)CCCC1.O=S(=O)([N-]S(=O)(=O)C(F)(F)F)C(F)(F)F + O
viscosity [mPa·s], 100 kPa
Settings	293.15 K	298.15 K	303.15 K	313.15 K	323.15 K	333.15 K	343.15 K	353.15 K	363.15 K
x1 = 0.2745, x2 = 0.2745	117	85.1	66.1	43	29.5	20.8	15.8	11.9	9.38
x1 = 0.3106, x2 = 0.2745	144	110	85.8	52.2	34.6	24.4	17.9	13.6	10.6
x1 = 0.3509, x2 = 0.2745	242	179	135	82.5	49.1	33.5	23.9	17.7	13.6
x1 = 0.3868, x2 = 0.2745	437	334	246	141	87.5	52.3	35.9	25.8	19.3
x1 = 0.4308, x2 = 0.2745	599	421	304	171	104	62.1	42	29.9	21.5

O=C(O)CC(O)(CC(=O)O)C(=O)O + CCCC[N+](CCCC)(CCCC)CCCC.[Cl-] + O
100 kPa, x2 = 0.1428, x1 = 0.1428
Settings	electrical conductivity [S/m]	viscosity [mPa·s]
293.15 K	0.0384	620
303.15 K	0.0639	380
313.15 K	0.103	245
323.15 K	0.161	161
333.15 K	0.245	108
